Test system: Saccharomyces cerevisiae wild type strain BY4743
Assay: Yeast azole drug experiment AF1: metabolite analysis (GC-MS, LC-MS)
Type: cell-based

Structure (SMILES): C[C@@H]1[C@H](O)[C@@H](C)/C=C/C=C/C=C/C=C/C=C/C=C/C=C/[C@H](O[C@@H]2O[C@H](C)[C@@H](O)[C@H](N)[C@@H]2O)C[C@@H]2O[C@](O)(C[C@@H](O)C[C@@H](O)[C@H](O)CC[C@@H](O)C[C@@H](O)CC(=O)O[C@H]1C)C[C@H](O)[C@H]2C(=O)O [Amphoteracin B]
- Fold Change urocanic acid (nLC): 0
- Fold Change xanthosine-DiH2O (nLC): 0
- Fold Change zeatin (nLC): 0
- Fold Change urocanic acid (pLC): 0
- Fold Change xanthosine (diH2O) (pLC): 0
- Fold Change zeatin (pLC): 0
- Fold Change of metabolite disaccaride2 (platform GC, p-Value 0.000388379): −0.9977
- Fold Change of metabolite disaccaride3 (platform GC, p-Value 0.000700744): −0.9977
- Fold Change of metabolite tms glutamine3 (platform GC, p-Value 0.003279434): −0.8935
- Fold Change of metabolite phenylalanine (platform GC, p-Value 0.010760299): −0.9797
- Fold Change of metabolite ornithine3 (platform GC, p-Value 0.011300115): −0.9853
- Fold Change of metabolite TMS mevalonic acid lactone (platform GC, p-Value 0.012983194): −0.9767
- Fold Change of metabolite malic acid (platform GC, p-Value 0.015444108): −0.963
- Fold Change of metabolite leucine (platform GC, p-Value 0.015876175): −0.9443
- Fold Change of metabolite glutamine (platform GC, p-Value 0.019324613): −0.9116
- Fold Change of metabolite sugar? (platform GC, p-Value 0.019518223): −0.933
- Fold Change of metabolite isoleucine (platform GC, p-Value 0.021030517): −0.9533
- Fold Change of metabolite aspartic acid (platform GC, p-Value 0.024172801): −0.9743
- Fold Change of metabolite tms tyrosine3 (platform GC, p-Value 0.029953667): −0.9473
- Fold Change of metabolite tms lysine4 (platform GC, p-Value 0.032217789): −0.9783
- Fold Change of metabolite glycanopyrose (platform GC, p-Value 0.041202857): −0.958
- Fold Change of metabolite alanine (platform GC, p-Value 0.054639399): −0.7773
- Fold Change of metabolite threonine3 (platform GC, p-Value 0.063199416): −0.8933
- Fold Change of metabolite threonine2 (platform GC, p-Value 0.073159868): −0.8553
- Fold Change of metabolite glycerol (platform GC, p-Value 0.089234962): −0.815
- Fold Change of metabolite ergosterol (platform GC, p-Value 0.114118055): 2.303
- Fold Change of metabolite fucosterol (platform GC, p-Value 0.186711806): −0.6553
- Fold Change of metabolite iso citric acid (platform GC, p-Value 0.233348939): −0.6183
- Fold Change of metabolite squalene (platform GC, p-Value 0.254158772): −0.5745
- Fold Change of metabolite oleic acid (platform GC, p-Value 0.325422554): −0.4593
- Fold Change of metabolite glycine (platform GC, p-Value 0.431923912): 0.8807
- Fold Change of metabolite lysine (platform GC, p-Value 0.488896519): −0.3925
- Fold Change of metabolite palmiteliadic acid (platform GC, p-Value 0.503020409): 0.515
- Fold Change of metabolite tms tyrosine2 (platform GC, p-Value 0.601581614): −0.3593
- Fold Change of metabolite octadecanoic acid (platform GC, p-Value 0.660192025): 0.21
- Fold Change of metabolite mevalonic acid lactone (platform GC, p-Value 0.690626296): −0.1276
- Fold Change of metabolite pyrimidine (platform GC, p-Value 0.744108261): −0.185
- Fold Change of metabolite tetradecanoic acid (platform GC, p-Value 0.793963653): 0.07967
- Fold Change of metabolite hexadecanoic acid (platform GC, p-Value 0.921125845): −0.2427
- Fold Change of metabolite phosphate (platform GC, p-Value 0.983733869): −0.007333
- Fold Change of metabolite campesterol (platform GC, p-Value 1): 0
- Fold Change of metabolite desmosterol (platform GC, p-Value 1): 0
- Fold Change of metabolite ornithine2 (platform GC, p-Value 1.48992E−05): −1
- Fold Change of metabolite asparagine (platform GC, p-Value 6.41E−06): −1
- Fold Change of metabolite disaccaride1 (platform GC, p-Value 7.54E−06): −1
- Fold Change of metabolite lanosterol (platform GC, p-Value 7.71E−06): −1
- Fold Change of metabolite kinetin (platform nLC (first kinetin line), p-Value 1): 0
- Fold Change of metabolite kinetin (platform nLC (second kinetin line), p-Value 1): 0
- Fold Change of metabolite cytidine (platform nLC, p-Value 0.000680198): −0.9986
- Fold Change of metabolite isocitric/citric/qu (platform nLC, p-Value 0.027544382): 2.549
- Fold Change of metabolite lactic acid (platform nLC, p-Value 0.077524891): −0.02583
- Fold Change of metabolite allantoin (platform nLC, p-Value 0.149169352): 3.97
- Fold Change of metabolite orotic acid (platform nLC, p-Value 0.186179266): 8380
- Fold Change of metabolite succinic (platform nLC, p-Value 0.193450596): 0.8663
- Fold Change of metabolite 3-indolylacetonitri (platform nLC, p-Value 0.197015297): −0.9998
- Fold Change of metabolite citrulline (platform nLC, p-Value 0.217809679): 1659
- Fold Change of metabolite 2-ketobutyric acid (platform nLC, p-Value 0.225631474): −0.9992
- Fold Change of metabolite sucrose (platform nLC, p-Value 0.225682636): 0.4493
- Fold Change of metabolite fumaric/3m2oxobutan (platform nLC, p-Value 0.238894937): 0.4423
- Fold Change of metabolite glucosamine6PO4 (platform nLC, p-Value 0.273438701): −0.9951
- Fold Change of metabolite gallic acid (platform nLC, p-Value 0.29960644): 0.1622
- Fold Change of metabolite arginine (platform nLC, p-Value 0.315413423): −0.4885
- Fold Change of metabolite biotin (platform nLC, p-Value 0.363209057): 1.077
- Fold Change of metabolite nopaline (platform nLC, p-Value 0.369522244): 0.3342
- Fold Change of metabolite hypoxanthine (platform nLC, p-Value 0.372039959): 0.1655
- Fold Change of metabolite tryptophan (platform nLC, p-Value 0.380816515): 1.142
- Fold Change of metabolite DLaminoadipic acid (platform nLC, p-Value 0.40985594): 1.411
- Fold Change of metabolite inostol/glucos/sorb (platform nLC, p-Value 0.41837757): −0.5905
- Fold Change of metabolite guanosine (platform nLC, p-Value 0.425021511): 1.131
- Fold Change of metabolite caffeic acid (platform nLC, p-Value 0.427037943): −0.5882
- Fold Change of metabolite ornithine (platform nLC, p-Value 0.473753211): 2.534
- Fold Change of metabolite malic acid (platform nLC, p-Value 0.497517178): 0.6212
- Fold Change of metabolite proline (platform nLC, p-Value 0.518220081): 0.4603
- Fold Change of metabolite 2-ketoglutaric (platform nLC, p-Value 0.622408732): 8.791
- Fold Change of metabolite alanine (platform nLC, p-Value 0.62524207): 0.1599
- Fold Change of metabolite sorbitol/mannitol (platform nLC, p-Value 0.68492695): 0.2162
- Fold Change of metabolite aspartic (platform nLC, p-Value 0.703732114): 0.2407
- Fold Change of metabolite pyridoxine (platform nLC, p-Value 0.708651225): −0.1294
- Fold Change of metabolite selenoDL-methionine (platform nLC, p-Value 0.711447529): 0.8515
- Fold Change of metabolite glutamic/acetylseri (platform nLC, p-Value 0.733962176): 0.1414
- Fold Change of metabolite asparagine (platform nLC, p-Value 0.758489047): 0.1511
- Fold Change of metabolite phenylalanine (platform nLC, p-Value 0.76165051): −0.1906
- Fold Change of metabolite leucine/isoleucine/ (platform nLC, p-Value 0.763305915): 0.1319
- Fold Change of metabolite serine (platform nLC, p-Value 0.766811518): 0.1091
- Fold Change of metabolite threonine/homoserin (platform nLC, p-Value 0.769444989): 0.1267
- Fold Change of metabolite allantoic acid (platform nLC, p-Value 0.777964345): −0.1456
- Fold Change of metabolite tetradecanoic acid (platform nLC, p-Value 0.782765706): −0.07723
- Fold Change of metabolite 4aminobutyrate/dimg (platform nLC, p-Value 0.820379809): −0.1983
- Fold Change of metabolite decanoic acid (platform nLC, p-Value 0.824169685): −0.08716
- Fold Change of metabolite glutamine/lysine (platform nLC, p-Value 0.835677767): 0.07919
- Fold Change of metabolite NacetylL-glutamate (platform nLC, p-Value 0.840704909): −0.1078
- Fold Change of metabolite menthol* (platform nLC, p-Value 0.852876357): −0.07013
- Fold Change of metabolite pipecolic acid (platform nLC, p-Value 0.871015411): 0.08112
- Fold Change of metabolite sugar-phosphate (platform nLC, p-Value 0.878141701): −0.1067
- Fold Change of metabolite oleic acid (platform nLC, p-Value 0.880270386): 0.689
- Fold Change of metabolite aconitic acid (platform nLC, p-Value 0.891314692): 0.5426
- Fold Change of metabolite palmitic acid (platform nLC, p-Value 0.90280612): 0.3979
- Fold Change of metabolite nicotinic acid (platform nLC, p-Value 0.972130606): 0.3131
- Fold Change of metabolite lauric acid (platform nLC, p-Value 0.972245476): 0.1225
- Fold Change of metabolite 4-methylcatechol (platform nLC, p-Value 1): 0

Reference: US20040023295A1, “Methods and systems for analyzing complex biological systems” (priority 2001, published 2004)
